# In patent US20210386071A1, “ANTI-NON-ENVELOPED VIRUS AGENT AND COMPOSITION CONTAINING SAME, AND ANTI-VIRAL PRODUCT AND METHOD FOR PRODUCING SAME” (TOAGOSEI CO., LTD., priority 2018, published 2021):
# Tested on: feline calicivirus
# Assay: Antiviral activity value (Mv) by methods of JIS L 1922, plaque count measurement of virus infectivity
# Procedure: The performance of each of the above antiviral agents was evaluated by applying methods shown in JIS L 1922 (antiviral property test method of fiber product), and an antiviral activity value (Mv) obtained was used to determine the antiviral property. […] Purified water was added to the antiviral agent so that its concentration was 0.1% by mass. Next, 100 μL of feline calicivirus solution having a virus infectivity of 1 to 5×10^7 PFU/mL was added to 900 μL of the above liquid, and a mixed liquid was allowed to stand at a temperature of 25° C. for 2 hours. Thereafter, the mixed liquid was recovered, and the recovered liquid was subjected to a plaque count measurement method to measure the virus infectivity. The virus infectivity was measured in the same manner as the test sample except that 900 μL of phosphate buffered saline (PBS) was used as a control sample instead of the test sample. The performance of the antiviral agent was evaluated by the antiviral activity value (Mv) obtained by the following formula. Mv=Log (virus infectivity of control sample)−Log (virus infectivity of test sample)
smiles,measurement,value
"[Ca+2].[OH-].[OH-] [V3, calcium hydroxide]",Antiviral activity value Mv,4.2
same,antiviral properties (assessment in words),excellent antiviral properties
